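Assay format: 96-well plates, 48-hour exposure. TGI is the concentration that stops growth completely.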
Legend:
Test in all cases: DTP human tumour cell line panel, 48 h
[1] = test system: CCRF-CEM leukemia
[2] = test system: EKVX NSCLC
[3] = test system: IGROV1 ovarian
[4] = test system: KM12 colon
[5] = test system: M14 melanoma
[6] = test system: MALME-3M melanoma
[7] = test system: SK-MEL-5 melanoma
[8] = test system: SN12C renal
[9] = test system: SNB-19 CNS
[10] = test system: U251 CNS
[11] = test system: UACC-257 melanoma

## NC(=O)c1ccc(NS(=O)(=O)c2ccc(N)cc2)nc1
[1]
  TGI: > 100 µM
[2]
  TGI: > 100 µM
[3]
  TGI: > 100 µM
[4]
  TGI: > 100 µM
[5]
  TGI: > 100 µM
[6]
  TGI: > 100 µM
[7]
  TGI: > 100 µM
[8]
  TGI: > 100 µM
[9]
  TGI: > 100 µM
[10]
  TGI: > 100 µM
[11]
  TGI: > 100 µM

## COC(=O)C(=O)C(C(=O)C1=NS(=O)(=O)c2cc(S(N)(=O)=O)c(Cl)cc2N1)c1nc2ccc(C(=O)c3ccccc3)cc2[nH]c1=O (stereo not given)
[1]
  TGI: > 100 µM
[2]
  TGI: > 100 µM
[3]
  TGI: > 100 µM
[4]
  TGI: > 100 µM
[5]
  TGI: > 100 µM
[6]
  TGI: > 100 µM
[7]
  TGI: > 100 µM
[8]
  TGI: > 100 µM
[9]
  TGI: > 100 µM
[10]
  TGI: > 100 µM
[11]
  TGI: > 100 µM

## Nc1nc(Cl)cc(NCCCNc2cc(Cl)nc(N)n2)n1
[1]
  TGI: > 100 µM
[2]
  TGI: > 100 µM
[3]
  TGI: > 100 µM
[4]
  TGI: > 100 µM
[5]
  TGI: > 100 µM
[6]
  TGI: > 100 µM
[7]
  TGI: > 100 µM
[8]
  TGI: > 100 µM
[10]
  TGI: > 100 µM
[11]
  TGI: > 100 µM

## CCN1CCN(c2nc3ccccc3nc2C(=O)c2ccc(OC)cc2)CC1
[2]
  TGI: > 100 µM
[3]
  TGI: > 100 µM
[4]
  TGI: > 100 µM
[5]
  TGI: 37.3 µM
[6]
  TGI: 62.2 µM
[7]
  TGI: > 100 µM
[9]
  TGI: > 100 µM
[10]
  TGI: > 100 µM
[11]
  TGI: 35.3 µM

## CS/C(C#N)=C(\C#N)SC
[1]
  TGI: > 100 µM
[2]
  TGI: 62.2 µM
[3]
  TGI: 43.8 µM
[4]
  TGI: 37.7 µM
[5]
  TGI: 6.56 µM
[6]
  TGI: 30.1 µM
[7]
  TGI: 49.1 µM
[8]
  TGI: 34.4 µM
[9]
  TGI: 65.9 µM
[10]
  TGI: > 100 µM
[11]
  TGI: 30.6 µM

## C=CCc1c(C)nc(C)nc1N/N=C/C=C/c1ccccc1
[1]
  TGI: > 100 µM
[2]
  TGI: 69.2 µM
[3]
  TGI: > 100 µM
[5]
  TGI: > 100 µM
[6]
  TGI: > 100 µM
[7]
  TGI: 84.2 µM
[8]
  TGI: > 100 µM
[9]
  TGI: > 100 µM
[10]
  TGI: 61.3 µM
[11]
  TGI: 48.9 µM

## CNC1C(O)C(NC)C2OC3(O)C(=O)CC(C)OC3OC2C1O (stereo not given)
[1]
  TGI: > 100 µM
[2]
  TGI: > 100 µM
[3]
  TGI: > 100 µM
[4]
  TGI: > 100 µM
[5]
  TGI: > 100 µM
[7]
  TGI: > 100 µM
[8]
  TGI: > 100 µM
[9]
  TGI: > 100 µM
[10]
  TGI: > 100 µM
[11]
  TGI: > 100 µM

## CN(C)CC1CCCC(CN2CCCCC2)C1=O (stereo not given)
[1]
  TGI: 5.48 µM
[2]
  TGI: 28.7 µM
[3]
  TGI: 35.5 µM
[4]
  TGI: 44.9 µM
[5]
  TGI: 18.7 µM
[6]
  TGI: 6.5 µM
[7]
  TGI: 33.5 µM
[8]
  TGI: 16.8 µM
[9]
  TGI: > 100 µM
[10]
  TGI: > 66.9 µM
[11]
  TGI: 30.8 µM

## CN(C)CCCNC(=O)c1cc(NC(=O)c2cc(NS(=O)(=O)c3ccc4c(c3)C(=O)c3ccccc3C4=O)cn2C)cn1C
[1]
  TGI: > 100 µM
[2]
  TGI: > 100 µM
[3]
  TGI: > 100 µM
[4]
  TGI: > 100 µM
[5]
  TGI: > 100 µM
[6]
  TGI: 79.4 µM
[7]
  TGI: > 100 µM
[8]
  TGI: > 100 µM
[9]
  TGI: > 100 µM
[10]
  TGI: > 100 µM
[11]
  TGI: > 100 µM

## Cc1cc(S(=O)(=O)NC(=C(C#N)C#N)[n+]2ccc(N(C)C)cc2)c([S-])cc1Cl
[1]
  TGI: > 100 µM
[2]
  TGI: > 100 µM
[3]
  TGI: > 100 µM
[4]
  TGI: > 100 µM
[5]
  TGI: > 100 µM
[6]
  TGI: > 100 µM
[7]
  TGI: > 100 µM
[8]
  TGI: > 100 µM
[9]
  TGI: > 100 µM
[10]
  TGI: > 100 µM
[11]
  TGI: > 100 µM

## Cc1ccccc1[P+](C)(c1ccccc1C)c1ccccc1C
[1]
  TGI: 0.0867 µM
[2]
  TGI: 35 µM
[3]
  TGI: 33 µM
[5]
  TGI: 41.1 µM
[6]
  TGI: 22.9 µM
[7]
  TGI: 16.8 µM
[8]
  TGI: 43.9 µM
[9]
  TGI: 37.4 µM
[10]
  TGI: 28.4 µM
[11]
  TGI: 15.8 µM

## C=C1C(=O)OC2/C=C(\C)C3OC3/C=C(/C(=O)OC)C(O)C(OC(=O)C3(C)OC3C)C12 (stereo not given)
[1]
  TGI: 2.63 µM
[2]
  TGI: 7.44 µM
[3]
  TGI: 8.45 µM
[4]
  TGI: 11.2 µM
[5]
  TGI: 4.7 µM
[6]
  TGI: 3.21 µM
[7]
  TGI: 3.42 µM
[8]
  TGI: 5.64 µM
[10]
  TGI: 16.8 µM
[11]
  TGI: 3.45 µM

## CC(N)C(=O)OCN1C(=O)C2C3C=CC(C2C1=O)C1C2C(=O)N(COC(=O)C(C)N)C(=O)C2C31 (stereo not given)
[1]
  TGI: 67.2 µM
[2]
  TGI: > 100 µM
[3]
  TGI: > 100 µM
[4]
  TGI: 41.6 µM
[5]
  TGI: 36.7 µM
[7]
  TGI: 34.1 µM
[8]
  TGI: 55.8 µM
[9]
  TGI: > 100 µM
[10]
  TGI: 50.3 µM
[11]
  TGI: 75.4 µM

## Cc1nc2c(O)cc3c4c(=O)n(C)c(=O)n(C)c4n(Cc4ccccc4)c3c2nc1C
[1]
  TGI: 50 µM
[2]
  TGI: 50.2 µM
[4]
  TGI: 54 µM
[5]
  TGI: 36.6 µM
[6]
  TGI: 38.8 µM
[7]
  TGI: 32.8 µM
[8]
  TGI: 38.1 µM
[9]
  TGI: 34.4 µM
[10]
  TGI: 35.4 µM
[11]
  TGI: 33.1 µM
